Consider 20 compounds from paper PMC6359749, “Lignans from the Twigs of Litsea cubeba and Their Bioactivities” (Molecules, 2019).

The test system of assay [1] is human colon cancer (HCT-116) cell line. The assay is described as follows: Cytotoxicity assay (MTT), HCT-116. The class given is cell-based. As to conditions: 24 h treatment. The procedure:
(§1) The cytotoxic activity was determined against human colon cancer (HCT-116), human non-small-cell lung carcinoma (NCI-H1650), and human ovarian cancer (A2780) cell lines which were bought from the Cell Bank of Shanghai Institute of Cell Biology (Chinese Academy of Sciences) and originally obtained from the American Type Culture Collection (ATCC, Rockville, MD, USA). Cells were grown in RPMI 1640 (GIBCO, New York, NY, USA) supplemented with 10% fetal calf serum (Life Technologies, Carlsbad, CA, USA), penicillin G (100 U/mL), and streptomycin (100 μg/mL) at 37 °C in a 5% CO2 and seeded in 96-well plates (CLS3635, Corning®, Sigma, Santa Clara, CA, USA) at a cell density of 3000 per well over night, and then were treated with various diluted concentrations (each concentration was arranged triple) of compounds 1–19, which were prepared with DMSO (Sigma) to 100 μM stock solution and stored in −20 °C in advance. After 24 h of treatment, 10 μL of MTT (5 mg/mL in PBS) was then added directly to all wells and the plates were placed in the dark at 37 °C for 3 h incubation. Cell viability was measured by observing absorbance at 570 nm on a SpectraMax^190 microplate reader (Molecular Devices, Silicon Valley, CA, USA). IC50 values were calculated using Microsoft Excel software (version 2010, Redmond, WA, USA). Taxol was used as a positive control.

Assay [2] has as its system human ovarian cancer (A2780) cell line. The assay is described as follows: Cytotoxicity assay (MTT), A2780. The class given is cell-based. As to conditions: 24 h treatment. The procedure:
as §1

Assay [3] deals with LPS-induced NO production in RAW264.7 macrophages. Briefly: LPS-induced nitric oxide (NO) production in RAW264.7 macrophages (Griess). As to conditions: Mus musculus, LPS 1 μg/mL, 18 h, read-out: IC50 against LPS-induced NO production. The class given is cell-based. As for the experimental part: The RAW 264.7 macrophages were cultured in The RPMI 1640 medium (Hyclone, Logan, UT, USA) containing 10% FBS. The compounds were dissolved in DMSO and further diluted in medium to produce different concentrations. The cell mixture and culture medium were dispensed into 96-well plates (2 × 10^5 cells/well) and maintained at 37 °C under 5% CO2. After preincubation for 24 h, serial dilutions of the test compounds were added into the cells, up to the maximum concentration 25 μM, then added with LPS to a concentration 1 μg/mL and continued to incubate for 18 h. The amount of NO was assessed by determined the nitrite concentration in the cultured RAW264.7 macrophage supernatants with Griess reagent. Aliqueots of supernatants (100 μL) were incubated, in sequence, with 50 μL 1% sulphanilamide and 50 μL 1% naphthylethylenediamine in 2.5% phosphoric acid solution. The sample absorbance was measured at 570 nm by a 2104 Envision Multilabel Plate Reader (PerkinElmer, Inc., Waltham, MA, USA). Dexamethasone was used as a positive control.
A general note: Nitrite, measured by Griess reagent, commonly stands in for NO production.

For assay [4], the system named is human non-small-cell lung carcinoma (NCI-H1650) cell line. Briefly: Cytotoxicity assay (MTT), NCI-H1650. The format is cell-based. As to conditions: for IC50: Homo sapiens, NCI-H1650, MTT, 24 h treatment. As for the experimental part: as §1
The target of assay [5] is T1, human protein tyrosine phosphatase 1B (GST-hPTP1B) (Homo sapiens, UniProt P18031).
T1 construct: GST; made in house
T1 sequence (P18031 1-435): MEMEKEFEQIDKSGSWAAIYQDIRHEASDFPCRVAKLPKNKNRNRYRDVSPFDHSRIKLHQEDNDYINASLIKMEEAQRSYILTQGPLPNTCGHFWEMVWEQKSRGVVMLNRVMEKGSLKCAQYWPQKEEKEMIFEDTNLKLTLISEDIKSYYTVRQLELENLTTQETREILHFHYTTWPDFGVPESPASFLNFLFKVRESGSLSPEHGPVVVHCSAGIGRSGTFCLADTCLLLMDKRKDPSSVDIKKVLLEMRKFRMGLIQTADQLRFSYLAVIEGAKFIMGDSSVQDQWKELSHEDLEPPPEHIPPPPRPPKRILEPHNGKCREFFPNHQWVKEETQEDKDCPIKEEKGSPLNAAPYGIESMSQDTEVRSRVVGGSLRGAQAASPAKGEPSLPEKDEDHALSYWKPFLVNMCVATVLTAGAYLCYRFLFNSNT
The assay is described as follows: PTP1B inhibition assay (p-NPP dephosphorylation). As to conditions: 3 mM p-NPP, HEPES pH 7.0, 30 °C, 10 min; read-out: IC50 against PTP1B. The class given is biochemical.
Protocol: The dephosphorylation of para-nitrophenyl phosphate (p-NPP) was catalyzed to para-nitrophenol by PTP1B. Enzyme activity involving an end-point assay, which intensified the yellow color, was measured at a wavelength of 405 nm. All compounds were dissolved in 100% dimethyl sulfoxide (DMSO), and reactions, including controls, were performed at a final concentration of 10% DMSO. Selected compounds were first evaluated for their ability to inhibit the PTPase reaction at a 10 μM concentration at 30 °C for 10 min, in a reaction system with 3 mM p-NPP in HEPES assay buffer (pH 7.0). The reaction was initiated by addition of the enzyme and quenched by addition of 1 M NaOH. The amount of the produced p-nitrophenol was determined at 405 nm using a microplate spectrophotometer (uQuant, Bio-Tek, Winooski, VT, USA). IC50 values were evaluated using a sigmoidal dose-response (variable slope) curve-fitting program of GraphPad Prism 4.0 software (La Jolla, CA, USA). Oleanolic acid was used as a positive control.

The structures appear in SMILES notation. pIC50: −log10 of the molar value.

By IC50 is commonly meant the midpoint of a concentration-inhibition curve. Lower therefore signals inhibition by little substance. Broadly, the pIC50 is the IC50 on a negative log10 scale, so that one unit is a factor of ten. For the compound `COc1cc(/C=C/C(=O)OC[C@@H](Cc2ccc(O)c(OC)c2)[C@@H](COC(=O)/C=C/c2ccc(O)c(OC)c2)Cc2ccc(O)c(OC)c2)ccc1O` [Compound 12, (+)-9,9′-O-di-(E)-feruloyl-secoisolariciresinol], the IC50 in assay [1], in assay [2] and in assay [4] was over 20 µM in each case. Further, in assay [3], the negative-log IC50 (pIC50) was 4.18.
On to `C[C@@H]1C[C@H]2[C@@H]3CCC4=CC(=O)C=C[C@]4(C)[C@@]3(F)[C@@H](O)C[C@]2(C)[C@@]1(O)C(=O)CO` [Dexamethasone, reference compound], for which, in assay [3], the negative logarithm of the IC50 (pIC50) is 5.02.
Take `COc1cc(/C=C/C(=O)OC[C@@H](Cc2cc(OC)c(O)c(OC)c2)[C@@H](CO)Cc2cc(OC)c(O)c(OC)c2)ccc1O` [Compound 5, (+)-(8S,8′S)-9-O-(E)-feruloyl-5,5′-dimethoxysecoisolariciresinol]: the IC50 in assay [1], in assay [2] and in assay [4] was over 20 µM throughout. Further, the pIC50 in assay [3] is 4.30.
Regarding `COc1cc(C[C@H]2COC(=O)[C@@H]2Cc2ccc(O)c(OC)c2)ccc1O` [Compound 18, matairesinol], the IC50 in assay [1] is 14 µM; in assay [2] it was 1.53 µM; in assay [4] it was over 20 µM.
The corresponding values for `COc1cc(C[C@H]2C(=O)OC[C@@H]2Cc2ccc(OC)c(OC)c2)ccc1O` [Compound 17, arctigenin] are 3.25 µM, 0.28 µM and over 20 µM.
In the case of `COc1cc(C=C2C(=O)OCC2Cc2ccc(OC)c(OC)c2)ccc1O` (stereo not shown) [Compound 19, (7E,8R′)-didehydroarctigenin], the IC50 in assay [1] is 18.5 µM; in assay [2], 12.8 µM; in assay [4] it was over 20 µM.
The matching figures for `COc1cc(CCNC(=O)C2=Cc3cc(OC)c(O)c(OC)c3[C@@H](c3cc(OC)c(O)c(OC)c3)[C@@H]2C(=O)NCCc2ccc(O)cc2)ccc1O` [Compound 3, (−)-(7′R,8′S)-N^1-[2-(4-hydroxy-3-methoxyphenyl)-ethyl]-N^2-[2-(4-hydroxyphenyl)-ethyl]-4,4′-dihydroxy-3,5,3′,5′-tetramethoxy-2,7′-cyclolignan-7-en-9,9′-diamide]: over 20 µM, over 20 µM and over 20 µM.
As to `COc1cc(C=CC(=O)OCC2C(C(=O)c3cc(OC)c(O)c(OC)c3)COC2c2cc(OC)c(O)c(OC)c2)ccc1O` (single isomer, unassigned; (+)) [Compound 7], the IC50 in assay [1] is over 20 µM; in assay [2] it was over 20 µM; in assay [4] it was 2.47 µM. Besides, the “folds more active than 8, 9, 13, and 14” value in assay [4] (NCI-H1650 cell line, versus 8, 9, 13 and 14) is given as 4-6 folds.
In the case of `COc1cc(/C=C/C(=O)OC[C@@H](Cc2ccc(O)c(OC)c2)[C@@H](CO)Cc2ccc(O)c(OC)c2)ccc1O` [Compound 6, (+)-(8S,8′S)-9-O-(E)-feruloyl-secoisolariciresinol], the 50% inhibitory concentration (IC50) in assay [1], in assay [2] and in assay [4] was over 20 µM each time. For the same compound, the pIC50 in assay [3] was 4.23.
In the case of `COc1cc(C=CC(=O)OCC2C(Cc3cc(OC)c(O)c(OC)c3)COC2c2cc(OC)c(O)c(OC)c2)cc(OC)c1O` (single isomer, unassigned; (+)) [Compound 8], the IC50 was over 20 µM in assay [1], over 20 µM in assay [2] and 11.2 µM in assay [4].
For the compound `COc1cc(CCNC(=O)[C@@H]2C(C(=O)NCCc3ccc(O)cc3)=Cc3cc(OC)c(O)c(OC)c3[C@H]2c2cc(OC)c(O)c(OC)c2)ccc1O` [Compound 2, (−)-(7′R,8′S)-N^1-[2-(4-hydroxyphenyl)-ethyl]-N^2-[2-(4-hydroxy-3-methoxyphenyl)-ethyl]-4,4′-dihydroxy-3,5,3′,5′-tetramethoxy-2,7′-cyclolignan-7-en-9,9′-diamide], the concentration for half-maximal inhibition (IC50) in assay [1], in assay [2] and in assay [4] was over 20 µM each time.
Regarding `COc1cc([C@@H]2c3c(cc(OC)c(O)c3OC)C=C(C(=O)NCCc3ccc(O)cc3)[C@H]2CO)cc(OC)c1O` [Compound 1, (−)-(7′R,8′S)-N-[2-(4-hydroxyphenyl)-ethyl]-4,4′,9′-trihydroxy-3,5,3′,5′-tetramethoxy-2,7′-cyclolignan-7-en-9-amide], the half-maximal inhibitory concentration (IC50) in assay [1], in assay [2] and in assay [4] was over 20 µM in each case.
`CC(=O)O[C@H]1C(=O)[C@@]2(C)[C@H]([C@H](OC(=O)c3ccccc3)[C@]3(O)C[C@H](OC(=O)[C@H](O)[C@@H](NC(=O)c4ccccc4)c4ccccc4)C(C)=C1C3(C)C)[C@]1(OC(C)=O)CO[C@@H]1C[C@@H]2O` [Taxol, reference compound]: the IC50 in assay [1] stood at 0.005 µM; in assay [2], 0.02 µM; in assay [4], 1.28 µM.
`COc1cc([C@@H]2c3c(cc(OC)c(O)c3OC)C=C(C(=O)NCCc3ccc(O)cc3)[C@H]2C(=O)NCCc2ccc(O)cc2)cc(OC)c1O` [Compound 10, 1,2-dihydro-6,8-dimethoxy-7-hydroxy-1-(3,5-dimethoxy-4-hydroxyphenyl)-N^1,N^2-bis-[2-(4-hydroxypeenyl)ethyl]-2,3-naphthalene dicarboxamide]: the IC50 in assay [1], in assay [2] and in assay [4] was over 20 µM each time.
As for `COc1cc(CC2COC(c3cc(OC)c(O)c(OC)c3)C2CO)cc(OC)c1O` (single isomer, unassigned; (+)) [Compound 15, (+)-5,5′-dimethoxylariciresinol], the 50% inhibitory concentration (IC50) in assay [1], in assay [2] and in assay [4] was over 20 µM in each case.
With `COc1cc(/C=C/C(=O)OC[C@@H](Cc2cc(OC)c(O)c(OC)c2)[C@@H](COC(=O)/C=C/c2ccc(O)c(OC)c2)Cc2cc(OC)c(O)c(OC)c2)ccc1O` [Compound 11, (+)-9,9′-O-di-(E)-feruloyl-5,5′-dimethoxy secoisolariciresinol], the concentration for half-maximal inhibition (IC50) in assay [1], in assay [2] and in assay [4] was over 20 µM each time. In addition, the pIC50 in assay [3] is 4.32; in assay [5] it was 4.87.
Turning to `COc1cc(CC2COC(c3cc(OC)c(O)c(OC)c3)C2CO)ccc1O` (single isomer, unassigned; (+)) [Compound 16, (+)-5′-methoxylariciresinol], the concentration for half-maximal inhibition (IC50) in assay [1], in assay [2] and in assay [4] was over 20 µM each time.
Turning to `COc1cc(C=CC(=O)OCC2C(c3cc(OC)c(O)c(OC)c3)OCC2C(OC)c2cc(OC)c(O)c(OC)c2)ccc1O` (stereo not shown) [Compound 9, 9′-O-(E)-Feruloyl-5,7,5′-trimethoxylariciresinol], the IC50 was over 20 µM in assay [1], over 20 µM in assay [2] and 13.2 µM in assay [4].
In the case of `COc1cc(C=CC(=O)OCC2C(Cc3ccc(O)c(OC)c3)COC2c2cc(OC)c(O)c(OC)c2)ccc1O` (single isomer, unassigned; (+)) [Compound 14, (+)-9′-O-(E)-feruloyl-5′-methoxylariciresinol], the results for the IC50 in assay [1], in assay [2] and in assay [4] were over 20 µM, over 20 µM and 10.5 µM, respectively.
With `COc1cc(C=CC(=O)OCC2C(Cc3cc(OC)c(O)c(OC)c3)COC2c2cc(OC)c(O)c(OC)c2)ccc1O` (single isomer, unassigned; (+)) [Compound 13, (+)-9′-O-(E)-feruloyl-5,5′-dimethoxylariciresinol], the figures for the IC50 in assay [1], in assay [2] and in assay [4] were over 20 µM, over 20 µM and 9.68 µM, respectively.
